{"source": "paper PMC10536132", "about": "“Arginine Gemini-Based Surfactants for Antimicrobial and Antibiofilm Applications: Molecular Interactions, Skin-Related Anti-Enzymatic Activity and Cytotoxicity” (Molecules, 2023)", "key": {"[1]": {"test_system": "methicillin-resistant Staphylococcus aureus (MRSA) ATCC 43300 biofilm", "assay": "Biofilm inhibition, crystal violet", "format": "cell-based", "conditions": "24 h contact, 2–128 μg/mL tested", "procedure": "(§1) The ability of MRSA and P. aeruginosa to form biofilms on propylene surfaces in the presence of bis-Args was determined. The two bacterial cells were kept in contact with the gemini surfactants at different concentrations from 2 to 128 μg/mL for 24 h. Then, the percentage of biofilm inhibition was determined.\n(§2) Antibiofilm activity was assessed against biofilm-producing strains of methicillin-resistant Staphylococcus aureus (MRSA) ATCC 43300 and Pseudomonas aeruginosa PAO1. Biofilm inhibition and eradication capacities of the gemini surfactants were evaluated against adherent bacterial biofilms grown in 96-well microtiter plates. Bacteria were grown overnight in tryptic soy agar at 37 °C for 24 h. The bacteria were suspended in lysogeny broth with glucose (1%) at 1.5 × 10^8 CFU/mL.\n(§3) Biofilm inhibition procedure: 100 μL of the gemini surfactant at different concentration values was added to each well in a 96-well microplate, then, 100 μL of the diluted bacterial suspension was added to the wells. Two-fold serial dilutions of the gemini surfactants to be tested were used (2–128 μg/mL). Microtiter plates were incubated at 37 °C for 24 h. Spent growth media was then discarded and biofilm was fixed with 150 μL methanol for 10 min. After the plates were air dried, the biofilms were stained with 50 μL of 0.1 of % crystal violet for 25 min. The plates were rinsed with water and then 150 μL of 96% ethanol containing 10% acetic acid was added to all 96-well plates to dissolve the remaining crystal violet-stained biofilm. The absorbance value was recorded at 570 nm. Each assay was performed at least three times and the results were averaged."}, "[2]": {"test_system": "Pseudomonas aeruginosa PAO1 biofilm", "assay": "Biofilm inhibition, crystal violet", "format": "cell-based", "conditions": "P. aeruginosa PAO1, 24 h contact, 2–128 μg/mL tested", "procedure": "as §1, §2, §3"}, "[3]": {"test_system": "methicillin-resistant Staphylococcus aureus (MRSA) ATCC 43300 biofilm", "assay": "Biofilm eradication, crystal violet", "format": "cell-based", "conditions": "at 32 μg/mL", "procedure": "(§4) The ability of these geminis to disperse and eradicate biofilms once formed on the propylene surfaces of the microtiter plates was evaluated using the same bacterial strains. […] The susceptibility of both biofilms against the tested surfactants was similar. At a low concentration of 32 μg/mL, C3(CA)2 and C3(LA)2 were able to eradicate around 60–70% of preformed biofilm; however, at this concentration, the […] hydrophobic compound, C3(OA)2, eradicated less than 30% of biofilm. At high concentrations, the eradication percentage is similar for all alkyl chains. […] In this case, at low concentrations, there is not a clear dependence between the antibiofilm properties and the spacer; however, at a high concentration, the best effectivity was obtained for the longer spacer chains.\nas §2\n(§5) Biofilm eradication procedure: For mature biofilm formation, 200 μL of the diluted bacterial suspension was added to each well in a 96-well microplate and incubated at 37 °C for 24 h. The wells were gently rinsed with phosphate-buffered saline (PBS) and 200 μL of the corresponding gemini surfactant solution was added to each well and incubated again at 37 °C for 24 h. Two-fold serial dilutions of the gemini surfactant were used (4–128 μg/mL). After the plates were air dried, the biofilms were stained with 50 μL of 0.1 of % crystal violet for 25 min. The plates were rinsed with water and then 150 μL of 96% ethanol containing 10% acetic acid was added to all 96-well plates to dissolve the remaining crystal violet-stained biofilm. The absorbance value was recorded at 570 nm. Each assay was conducted at least three times and the results were averaged."}, "[4]": {"test_system": "Pseudomonas aeruginosa PAO1 biofilm", "assay": "Biofilm eradication, crystal violet", "format": "cell-based", "conditions": "P. aeruginosa PAO1, at 32 μg/mL", "procedure": "as §4, §2, §5"}, "[5]": {"test_system": "Gram-positive and Gram-negative bacteria", "assay": "Minimum inhibitory concentration (MIC), broth microdilution", "format": "cell-based", "conditions": "planktonic bacteria, 24 h at 37 °C, values only in Figure 2", "source_text": "The Gram-positive bacteria tested include some problematic microorganisms such us L. monocytogenes; these bacteria cause listeriosis, a serious disease that has grown considerably in industrialized countries due to the increased ratio of immunosuppressed persons and the extensive use of refrigerated food. We have also tested the effectivity of these surfactants against methicillin-resistant Staphylococcus aureus (MRSA), which is known as a major cause of hospital-acquired infections and, at this time, is a remarkable public health problem. […] For comparison, this figure also includes the MIC values of a LAM (lauroyl arginine methyl ester) surfactant that can be considered the single-stranded homologue of these geminis and the BAC (benzalkonium ammonium chloride), a quaternary ammonium surfactant widely used as antiseptic.\nAntimicrobial tests were carried out against the following microorganisms: Bacillus subtilis ATCC 6633, Staphylococcus epidermidis ATCC 12228, Staphylococcus aureus ATCC 29213, Listeria monocytogenes ATCC 15313, Enterococcus faecalis ATCC 29212, Escherichia coli ATCC 25922, Acinetobacter baumannii ATCC 19606, Klebsiella aerogenes ATCC 13048, methicillin-resistant Staphylococcus aureus ATCC 43300 and Pseudomonas aeruginosa PAO1. […] The growth of the microorganisms was determined visually after incubation for 24 h at 37 °C. […]"}, "[6]": {"design": "method as in doi:10.1021/la981295l", "conditions": "cited from earlier work"}, "[7]": {"test_system": "squamous cell carcinoma (A431)", "assay": "Cell viability, NRU assay", "format": "cell-based", "conditions": "A431, surfactant in solution at 35.6 µg/mL, 24 h", "procedure": "(§6) The immortal human keratinocyte (HaCaT) and the squamous cell carcinoma (A431) were obtained from Celltec, University of Barcelona. The cells were grown in DMEM medium (4.5 g/L glucose) supplemented with 10% (v/v) FBS, 2 mM L-glutamine, 100 U/mL of penicillin and 100 μg/mL of streptomycin at 37 °C under 5% CO2. Cells were routinely cultured in 75 cm^2 culture flasks and were trypsinized using trypsin-EDTA when reached approximately 80% of confluence.\n(§7) HaCaT cells (1 × 10^5 cells/mL) and A431 cells (5 × 10^4 cells/mL) were grown at the defined densities into the central 60 wells of a 96-well microplate. Cells were incubated for 24 h under 5% CO2 at 37 °C. The medium was then removed and the cells were incubated with the surfactants (100 μL), previously diluted 1:1 (v/v), reaching a concentration of […] in DMEM medium supplemented with 5% FBS using two different colorimetric methods for quantification, as follows.\n(§8) The accumulation of the neutral red dye in the lysosomes of viable, undamaged cells constitutes the basis of the neutral red uptake (NRU) assay. After the cells were incubated for 24 h with the corresponding systems at 35.6 µg/mL, the medium was removed and the surfactants´ solutions were incubated for 3 h with the NRU dye solution (50 μg/mL) dissolved in the medium without FBS and phenol red (Lonza). Cells were then washed with sterile PBS, followed by the addition of 100 μL of a solution containing 50% ethanol absolute and 1% acetic acid in distilled water to extract the non-adhered dye. The microplates were then stirred for 5 min at 25 °C to promote the dissolution. Finally, the absorbance of the resulting solutions was measured at λ = 550 nm using a Bio-Rad 550 microplate reader (Hercules, CA, USA)."}, "[8]": {"design": "method as in doi:10.1021/la981295l", "conditions": "cited from earlier work", "remark": "listed apart in the source"}, "[9]": {"design": "method as in doi:10.1021/la981295l", "conditions": "cited from earlier work", "remark": "listed apart in the source"}, "bovine hyaluronidase": {"test_system": "bovine hyaluronidase", "assay": "Hyaluronidase inhibitory activity", "format": "biochemical", "conditions": "negative inhibition values", "procedure": "The hyaluronidase inhibitory activity was performed according to the method used by Altinyay et al. with some modifications. Briefly, a work solution containing bovine hyaluronidase (7900 units/mL) in 0.1 M acetate buffer (pH 3.6) was prepared. Fifty microliters of the work solution were mixed 1:1 with the surfactants’ solution in 5% DMSO. For the negative control, 50 μL of 5% DMSO was used, while EGCG was used as positive control. After 20 min of incubation at 37 °C, 50 μL of calcium chloride (12.5 mM) was added to the mixture and again incubated for 20 min at 37 °C. At that point, 250 μL sodium hyaluronate (1.2 mg/mL) was added and incubated for 40 min at 37 °C. After incubation, the mixture was treated with 50 μL of 0.4 M NaOH and 100 μL of 0.2 M sodium borate and then incubated for 3 min in a boiling water bath. After cooling to room temperature, 1.4 mL of p-dimethylaminobenzaldehyde solution was added to the reaction mixture, being further incubated at 37 °C for 20 min. The resulting colored solution was measured at λ = 585 nm (PerkinElmer-Lambda 35, Brazil). The hyaluronidase inhibitory activity of each sample was calculated according to the following formula:(3) Hyaluronidase inhibitory activity %=A1−A2/A1×100 where A1 and A2 represent the absorbance in the absence and presence of the testing sample, respectively."}, "[10]": {"molecular_target": "porcine pancreatic elastase (Sus scrofa, UniProt P00772)", "sequence (P00772 27-266)": "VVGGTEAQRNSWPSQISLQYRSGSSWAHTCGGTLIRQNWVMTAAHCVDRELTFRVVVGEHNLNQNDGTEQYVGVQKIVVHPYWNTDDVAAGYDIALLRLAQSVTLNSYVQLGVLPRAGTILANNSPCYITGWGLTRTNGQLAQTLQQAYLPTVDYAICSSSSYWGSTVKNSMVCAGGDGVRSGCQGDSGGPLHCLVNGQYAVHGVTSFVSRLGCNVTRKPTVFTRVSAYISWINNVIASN", "assay": "Elastase inhibitory assay", "format": "biochemical", "conditions": "40 µL of 1000 µg/mL stock; EGCG 250 μM", "procedure": "The elastase inhibition was tested according to the method described by […] et al.. First, a stock solution of each surfactant at 1000 μg/mL was prepared in sterile ultrapure water. A stock solution of porcine pancreatic elastase at 3.33 mg/mL in sterile ultrapure water was also prepared. The substrate […] (Ala) 3-p-nitroanilide was dissolved in 0.2 mM Tris-HCl buffer solution (pH 8.0). The samples (40 μL) were then diluted and incubated together with the enzyme for 15 min prior to the substrate addition. Negative control was sterile ultrapure water, while EGCG (250 μM or 0.114 mg/mL) was used as the positive control. The absorbance at λ = 410 nm was measured immediately after the substrate addition and continuously during the next 2 h using an Elx800 Microplate Reader (Biotek®). […] The anti-elastase activity (in %), determined in triplicate, was calculated according to the following equation:(2) Elastase inhibitory activity %=A1-A2/A1×100 where A1 and A2 represent the absorbance in the absence and presence of the testing samples, respectively."}, "[11]": {"assay": "Cell viability, NRU assay", "format": "cell-based, human", "conditions": "human, HaCaT cells (immortal human keratinocytes); NRU, HaCaT, surfactant in solution at 35.6 µg/mL, 24 h; read-out: cellular viability", "procedure": "as §6, §7, §8"}, "[12]": {"assay": "Apparent pKa by direct titration with NaOH", "format": "physicochemical", "conditions": "aqueous solution, concentration above the minimum aggregation concentration; pH at semi-equivalence point", "procedure": "In order to determine the ionization state of these gemini surfactants at the pH used to investigate their biological properties, the apparent acid pKa was determined for each of them. The pKap value has been determined by means of a direct titration with NaOH of an aqueous solution of each compound. The surfactant concentrations used were in all cases higher than the minimum aggregation concentration, thus avoiding possible deviations in the pK value due to the monomer–aggregate balance. The pKap values can be estimated from the pH at the semi-equivalence point that is reached when the molar ratio of protonated and non-protonated species is 1:1. In these conditions, we have that the pH = pKa.\nThe pKa value of each compound has been determined by means of a direct titration with NaOH of an aqueous solution of each compound. The pH was measured using the pH electrode Thermo Electron Corporation ORION 8103SC and the temperature was controlled by a thermostatic bath, Heto CBN 8-30. The pKa values can be estimated from the pH at the semi-equivalence point, which contains a 1:1 molar ratio of protonated and non-protonated species; at this point, pH = pKap."}}, "note": "Marks after values point to notes of the source that are not given here.", "data": [{"molecule": "CCCCCCCC(=O)NC(CCCNC(=N)N)C(=O)NCCCNC(=O)C(CCCNC(=N)N)NC(=O)CCCCCCC", "note": "(stereo not drawn) [C3(OA)2]", "values": [{"measurement": "concentration that inhibits biofilm formation", "setting": "[1]", "result": 128, "unit": "µg/mL"}, {"measurement": "concentration that inhibits biofilm formation", "setting": "[2]", "result": 128, "unit": "µg/mL"}, {"measurement": "preformed biofilm eradicated", "setting": "[3]", "result": "less than 30%"}, {"measurement": "preformed biofilm eradicated", "setting": "[4]", "result": "less than 30%"}, {"measurement": "antimicrobial activity (MIC), in words", "setting": "[5]", "result": "lowest antimicrobial efficiency (highest MIC values)"}, {"measurement": "CMC (mM) Fluorescence", "setting": "[6]", "result": "8 * mM"}]}, {"molecule": "CCCCCCCCCCCC(=O)NC(CCCNC(=N)N)C(=O)NCCCCCCNC(=O)C(CCCNC(=N)N)NC(=O)CCCCCCCCCCC", "note": "(stereo not drawn) [C6(LA)2]", "values": [{"measurement": "cytotoxicity, in words", "setting": "[7]", "result": "did not cause any apparent cytotoxicity"}, {"measurement": "CMC (mM) Conductivity", "setting": "[8]", "result": "0.4 * mM"}, {"measurement": "CMC (mM) Surface Tension", "setting": "[9]", "result": "0.002 * mM"}, {"measurement": "γcmc", "setting": "[9]; surface tension at the cmc", "result": "30 * mN/m"}, {"measurement": "increase of hyaluronidase enzymatic activity", "setting": "bovine hyaluronidase", "result": 47.2, "unit": "%"}, {"measurement": "anti-elastase activity (inhibition)", "setting": "[10]", "result": 10.5, "unit": "%"}, {"measurement": "viability at 24 h, 35.6 µg/mL", "setting": "[11]", "result": 99.3, "unit": "%"}, {"measurement": "CMC (mM) Fluorescence", "setting": "[6]", "result": "0.4 * mM"}, {"measurement": "pKap", "setting": "[12]", "result": 10.5}]}, {"molecule": "CCCCCCCCCCCC(=O)NC(CCCNC(=N)N)C(=O)NCC(O)CNC(=O)C(CCCNC(=N)N)NC(=O)CCCCCCCCCCC", "note": "(stereo not drawn) [C3(LA)2OH, Bis (N^α-lauroyl arginine) (2-hydroxy-1,3-propane) diamide]", "values": [{"measurement": "CMC (mM) Conductivity", "setting": "[8]", "result": "0.6 * mM"}, {"measurement": "CMC (mM) Fluorescence", "setting": "[6]", "result": "0.6 * mM"}, {"measurement": "pKap", "setting": "[12]", "result": 10.9}]}]}
